Literature values in patent US6521028B1, “Low hazard corrosion inhibitors and cleaning solutions using quaternary ammonium salts” (HydroChem Industrial Services, Inc., priority 1996, dated 2003).

How the values were obtained:
[1] = not given; remark: listed apart in the source

Row | SMILES | LD50 (oral rats) [mg/kg] | amount fatal to humans [1] [mL]
1 | COC(C)COC(C)CO (stereo not drawn) [dipropylene glycol methyl ether] | 5130 | –
2 | NC(N)=S [thiourea] | 125 | –
3 | CC(C)O [Isopropanol, isopropanol] | – | ≥ 100
